Assays:
Assay type in all cases: functional
[1] = system: Botrytis cinerea; assay: microbe, parasite or virus in culture; details: read-out: GI
Description: Fungicidal activity against Botryotinia fuckeliana assessed as inhibition rate of circle mycelium growth at 500 ug/ml

[2] = system: Alternaria alternata; assay: microbe, parasite or virus in culture; details: read-out: GI
Description: Fungicidal activity against Alternaria alternata assessed as inhibition rate of circle mycelium growth at 500 ug/ml

[3] = system: Ustilaginoidea; assay: microbe, parasite or virus in culture; details: read-out: GI
Description: Fungicidal activity against Ustilaginoidea oryzae assessed as inhibition rate of circle mycelium growth at 500 ug/ml

[4] = system: Rhizoctonia solani; assay: microbe, parasite or virus in culture; details: read-out: GI
Description: Fungicidal activity against Rhizoctonia solani assessed as inhibition rate of circle mycelium growth at 500 ug/ml

[5] = system: Fusarium graminearum; assay: microbe, parasite or virus in culture; details: read-out: GI
[6] = system: Sclerotinia sclerotiorum; assay: microbe, parasite or virus in culture; details: read-out: GI
Description: Fungicidal activity against Sclerotinia sclerotiorum assessed as inhibition rate of circle mycelium growth at 500 ug/ml

[7] = system: Phytophthora capsici; assay: microbe, parasite or virus in culture; details: read-out: GI
Description: Fungicidal activity against Phytophthora capsici assessed as inhibition rate of circle mycelium growth at 500 ug/ml

[8] = system: Rhizoctonia solani; details: at 400 µg/mL
Description: Fungicidal activity against Rhizoctonia solani assessed as inhibition rate of circle mycelium growth at 400 ug/ml relative to control

[9] = system: Rhizoctonia solani; details: at 200 µg/mL
Description: Fungicidal activity against Rhizoctonia solani assessed as inhibition rate of circle mycelium growth at 200 ug/ml relative to control

[10] = system: Rhizoctonia solani; details: at 100 µg/mL
Description: Fungicidal activity against Rhizoctonia solani assessed as inhibition rate of circle mycelium growth at 100 ug/ml relative to control

SMILES	inhibition of growth at 500 µg/mL [1] [%]	inhibition of growth at 500 µg/mL [2] [%]	inhibition of growth at 500 µg/mL [3] [%]	inhibition of growth at 500 µg/mL [4] [%]	inhibition of growth at 500 µg/mL [5] [%]	inhibition of growth at 500 µg/mL [6] [%]	inhibition of growth at 500 µg/mL [7] [%]	Efficacy [8] [%]	Efficacy [9] [%]	Efficacy [10] [%]
C/C(=N\Nc1nc2c(C)cccc2s1)c1ccc(F)cc1	0	0	0	0	0	28.1	0			
C/C(=N\Nc1nc2c(C)cccc2s1)c1ccc(C)cc1	0	0	5	30	0	28.1	0			
CCCC1COC(Cn2cncn2)(c2ccc(Cl)cc2Cl)O1 (stereo not drawn) [PROPICONAZOLE]	0	0	0	90	0	87.5	0	90	60	40
CC(C)=NNc1nc2c(C)cccc2s1	70.8	47.8	20	0	0	59.4	0			
COc1ccccc1/C(C)=N/Nc1nc2c(C)cccc2s1	0	0	0	60	0	3.1	0			
Cc1cccc2sc3nncn3c12 [TRICYCLAZOLE]	52.8	0	0	85	13.6	72.7	27.8	57	33	22
C/C(=N\Nc1nc2c(C)cccc2s1)C(C)C	70.8	56.5	5	60	0	90.6	0			
COc1ccc(/C(C)=N/Nc2nc3c(C)cccc3s2)cc1	37.5	30.4	0	95	0	50	0	50	20	10
C/C(=N\Nc1nc2c(C)cccc2s1)c1cccc(Cl)c1	0	0	0	0	0	43.8	0			
C/C(=N\Nc1nc2c(C)cccc2s1)c1ccc([N+](=O)[O-])cc1	0	0	0	90	0	0	0			
C/C(=N\Nc1nc2c(C)cccc2s1)c1c(F)cccc1F	0	0	0	95	0	0	0	65	45	35
C/C(=N\Nc1nc2c(C)cccc2s1)c1ccc(Br)cc1	0	0	0	50	0	46.9	0			
Cc1cccc2sc(NN=C3CCCC3)nc12	70.8	52.2	25	85	36.8	62.5	0			
C/C(=N\Nc1nc2c(C)cccc2s1)c1ccc(Cl)cc1	0	0	0	0	0	9.4	0			
Cc1cccc2sc(NN=C3CCCCC3)nc12	66.7	47.8	0	0	0	43.8	0			
C/C(=N\Nc1nc2c(C)cccc2s1)c1ccccc1	0	21.7	0	0	0	31.3	0			
Cc1cccc2sc(NN)nc12	22.3	13.6	0	0	0	16.2	0			
CC/C(C)=N/Nc1nc2c(C)cccc2s1	70.8	47.8	40	90	0	87.5	0			
